Results as given in patent publication US20170137419A1, “DERIVATIVES OF 2H-PYRAZOLO[4,3-C]QUINOLIN-3(5H)-ONE AND USE THEREOF” (UNIVERSITE DU DROIT ET DE LA SANTE LILLE 2, priority 2014, published 2017).
Read-outs that look alike come from different tables or passages of the source.

Assays:
hCB2 [1] = biological target: T1, hCB2 (Homo sapiens, UniProt P34972); test: Binding affinity hCB2, [3H]-CP-55,940 displacement
Method: (§1) Measurement of Affinity. The binding studies were carried out in accordance with the protocols described by El Bakali et al. (El Bakali, J.; Muccioli, G. G.; Renault, N.; Pradal, D.; Body-Malapel, M.; Djouina, M.; Hamtiaux, L.; Andrzejak, V.; Desreumaux, P.; Chavatte, P.; Lambert, D. M.; Millet, R. 4-Oxo-1,4-Dihydropyridines as Selective CB2 Cannabinoid Receptor Ligands: Structural Insights into the Design of a Novel Inverse Agonist Series. J. Med. Chem. 2010, 53, 7918-7931) but applying a small modification. Briefly, the [3H]-CP-55,940 (0.5 nM) chosen as a radioligand for the CB1 and CB2 human receptors is added to 6 μg of membranes resuspended in 550 μl (final volume) of buffer (20 mM Hepes, 5 mM MgCl2, 1 mM EDTA, 0.3% bovine serum albumin, pH 7.4). After 1 hour at 30° C., incubation is stopped and the solution is quickly filtered on Harvester, through the “Unifilter 96 (PerkinElmer)” filter previously saturated with bonding buffer (20 mM Hepes, 5 mM MgCl2, 1 mM EDTA, 0.3% bovine serum albumin, pH 7.4), and then washed 20 times with iced binding buffer without serum albumin. The radioactivity of the filters was measured using the “TopCount NXT Microplate Scintillation Counter (PerkinElmer)” after addition of 60 μl of “MicroScint 40 (PerkinElmer)” scintillation liquid. The experiments were carried out in triplicate. The non-specific binding was determined in the presence of 5 μM (R)-(+)-WIN 55,212-2 (Sigma).
(§2) Analysis of the Data. The values of Ki and EC50 were determined by non-linear regression carried out by the “GraphPad Prism 5.0” program (GraphPad Software, San Diego). The statistical analysis of the results of the [^35S]-GTPγS dosing was carried out by means of the “Student” test.

hCB1 = hCB1 (Homo sapiens, UniProt P21554); test: Binding affinity hCB1, [3H]-CP-55,940 displacement
Method: as §1, §2

hCB2 [2] = biological target: T1, hCB2; test: [35S]-GTPγS functional activity (hCB2); assay type: biochemical
Method: Dosing of [^355]-GTPγS. The studies were carried out at 30° C. in tubes containing 10 μg of protein in 0.5 ml (final volume) of buffer (20 mM Hepes, 10 mM MgCl2, 100 mM NaCl, 0.1% bovine serum albumin, pH 7.4) supplemented with 30 μm of GDP. The dosing was initiated by the addition of [^35S]-GTPγS (0.1 nM, final concentration). After 1 hour at 30° C., the incubation was stopped and the solution was quickly filtered on the “Unifilter-96 GF/B” filter and washed 20 times with iced bonding buffer. The radioactivity on the filters was counted as mentioned above. The non-specific binding was measured in the presence of 100 μm of Gpp(NH)p. The results were expressed in EC50 (nM) and Emax (%).
as §2

colitis caused by TNBS = test: Model of colitis caused by TNBS in mice; assay type: in vivo, C57B16 male mice
Method: C57B16 male mice (n=10 per group) have free access to food and water. To cause colitis, the mice are anaesthetised for 90-120 minutes by subcutaneous administration of zylasine-ketamine (50 mg/kg) diluted in physiological serum, then receive an intrarectal administration of TNBS (40 μl, 150 mg/kg) diluted in a 1:1 mixture of 0.9% NaCl and 100% ethanol. The novel CB2 agonists are diluted in 0.5% carboxymethyl cellulose (Sigma-Aldrich, Saint Quentin Fallavier, France) for a dose administered by gavage of 0.1, 1 and 10 mg/kg body weight/day. JWH133, a known CB2 agonist (Kimball E S, Schneider C R, Wallace N H, Hornby P J. Agonists of cannabinoid receptor 1 and 2 inhibit experimental colitis induced by oil of mustard and by dextran sulfate soldium. Am. J. Physiol. Gastrointest. Liver Physiol., 2006, 291, G364-71.), is administered intraperitoneally at a dose of 0.1 mg/kg body weight/day. The animals are euthanised 5 days after the administration of TNBS. The intensity of the colitis at macroscopic and histological levels is assessed in each colon blind by 2 investigators. The scale of the macroscopic scores of the lesions ranges from 0 to 10 according to characteristics reflecting inflammation, such as hyperaemia, thickening of the intestinal wall and the extent of ulcerations. A localised colon biopsy precisely 2 cm above the anal channel is used for histological analysis following a May-Grunwald Giemsa colouring. The histological score varies between 0 and 6 and takes into account the degree of inflammatory infiltrate, the presence of erosion, ulcerations and necrosis of the mucosa, and the level of extension of the lesions in depth and on the surface reached. Two other colon biopsies are frozen and used to analyse the levels of mRNA of inflammatory cytokines by PCR in real time. The total mRNAs of the colon are extracted using the Nucleospin RNAII kit (Macherey Nagel, Hoerdt, France) and then retrotranscripts using the High-Capacity cDNA Reverse Transcription Kit (Applied Biosystems), Foster City, USA). The real-time PCR is carried out with SYBR Green (Applied Biosystems, Foster City, USA). The specific primers for TNF-alpha (TNF-alpha F and TNF-alpha R), IL-1 beta (IL1-beta F and IL1-beta R) and POLR2A (POLR2A F and POLR2A R) as reference gene were chosen using the Primer Express 2 software (Applied Biosystems, Foster City, USA). For the graphical representation of the quantitative PCR data, the values of Ct obtained for the target genes are compared with those of the reference gene, using the ΔΔCt method, that is to say: ΔΔCt=(Ct of the target gene−Ct of the reference gene) treated mouse−(Ct of the target gene−Ct of the reference gene) non-treated mouse, and the final data are derived from 2-ΔΔCt.
Compound 26 was evaluated in mice in a model of colitis caused by TNBS in accordance with a described protocol (Desreumaux, P.; Dubuquoy, L.; Nutten, S.; Peuchmaur, M.; Englaro, W.; Schoonjans, K.; Derijard, B.; Desvergne, B.; Wahli, W.; Chambon, P.; Leibowitz, M. D.; Colombel, J. F.; Auwerx, J. Attenuation of Colon Inflammation Through Activators of the Retinoid X Receptor (RXR)/Peroxisome Proliferator-Activated Receptor Gamma (PPARgamma) Heterodimer. A Basis for New Therapeutic Strtegies. J. Exp. Med. 2001, 193, 827-838). Thus compound 26 was administered orally in carboxymethyl cellulose (CMC) each day at a dose of 0.1, 1 and 10 mg/kg for seven days, and two days before the induction of colitis. A control with an administration of CMC alone was effected.

[3] = Table 2, radioligand [3H]-CP-55,940 0.5 nM, read-out: Binding affinity hCB2 Ki
[4] = Table 2, radioligand [3H]-CP-55,940 0.5 nM, read-out: Binding affinity hCB1 Ki
[5] = Table 3, radioligand [3H]-CP-55,940 0.5 nM, read-out: Binding affinity hCB1 Ki

T1 sequence (P34972 whole entry): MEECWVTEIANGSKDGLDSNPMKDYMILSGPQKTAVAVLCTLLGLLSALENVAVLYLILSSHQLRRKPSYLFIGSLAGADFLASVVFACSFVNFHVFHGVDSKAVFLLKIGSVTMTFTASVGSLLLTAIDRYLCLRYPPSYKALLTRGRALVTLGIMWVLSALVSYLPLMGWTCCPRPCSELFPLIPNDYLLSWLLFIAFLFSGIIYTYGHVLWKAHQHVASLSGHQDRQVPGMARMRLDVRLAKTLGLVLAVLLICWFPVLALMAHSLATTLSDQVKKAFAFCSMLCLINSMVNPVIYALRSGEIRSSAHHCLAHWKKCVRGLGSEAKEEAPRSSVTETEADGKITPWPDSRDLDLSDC
hCB1, sequence (P21554 whole entry): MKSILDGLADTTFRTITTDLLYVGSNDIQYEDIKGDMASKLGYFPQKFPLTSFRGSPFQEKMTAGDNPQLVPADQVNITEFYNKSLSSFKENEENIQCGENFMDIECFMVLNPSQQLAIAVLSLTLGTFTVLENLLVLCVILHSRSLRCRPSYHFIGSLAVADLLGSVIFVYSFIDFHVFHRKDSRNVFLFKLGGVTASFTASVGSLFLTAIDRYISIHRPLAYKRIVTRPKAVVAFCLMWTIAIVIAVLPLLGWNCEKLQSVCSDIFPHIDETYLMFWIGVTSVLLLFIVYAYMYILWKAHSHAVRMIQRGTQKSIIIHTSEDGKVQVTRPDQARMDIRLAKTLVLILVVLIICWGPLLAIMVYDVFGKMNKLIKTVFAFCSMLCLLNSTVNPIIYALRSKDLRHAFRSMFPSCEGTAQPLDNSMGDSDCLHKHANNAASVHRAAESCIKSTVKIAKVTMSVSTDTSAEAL

Molecule CCCCCn1cc2c(=O)n(CCC34CC5CC(CC(C5)C3)C4)nc-2c2ccccc21 [Compound 27, 2-(1-Adamantylethyl)-5-pentyl-2H-pyrazolo[4,3-c]quinolin-3 (5H)-one] has a Ki (hCB2 [1]; [3]) of 26.1 ± 3.8 nM.
CCCCCn1cc2c(=O)n(CC3CC3)nc-2c2ccccc21 [Compound 23, 2-(Cyclopropylmethyl)-5-pentyl-2H-pyrazolo[4,3-c]quinolin-3(5H)-one] showed a Ki (hCB2 [1]; [3]) of 10.4 ± 3.1 nM and a Ki (hCB1; [4]) greater than 3000 nM.
Molecule CCCCCn1cc2c(=O)n(CCC3CCCCC3)nc-2c2ccccc21 [Compound 25, 2-(2-Cyclohexylethyl)-5-pentyl-2H-pyrazolo[4,3-c]quinolin-3(5H)-one] has a Ki (hCB2 [1]; [3]) of 8 ± 0.4 nM, a Ki (hCB1) greater than 3000 nM and an EC50 (hCB2 [2]) of 5.4 ± 1.1 nM. For the same molecule, the Emax (hCB2 [2]) was 141 ± 3%.
For CCCCCn1cc2c(=O)n(C3CCCCC3)nc-2c2ccccc21 [Compound 16, 2-Cyclohexyl-5-pentyl-2H-pyrazolo[4,3-c]quinolin-3 (5H)-one], the Ki (hCB2 [1]; [3]) was 18.8 ± 3.3 nM, the Ki (hCB1) was greater than 3000 nM and the EC50 (hCB2 [2]) was 204 ± 41 nM. For the same molecule, the Emax (hCB2 [2]) was 160 ± 3%.
In the case of CCCCCn1cc2c(=O)n(CC3CCCCC3)nc-2c2ccccc21 [Compound 24, 2-(Cyclohexylmethyl)-5-pentyl-2H-pyrazolo[4,3-c]quinolin-3(5H)-one], the Ki (hCB2 [1]; [3]) is reported as 0.62 ± 0.03 nM, the Ki (hCB1) is reported as greater than 3000 nM and the EC50 (hCB2 [2]) is reported as 14.3 ± 4 nM. The Emax (hCB2 [2]) was 149 ± 4%.
In the case of CCCCCn1cc2c(=O)n(Cc3ccccc3)nc-2c2ccccc21 [Compound 19, 2-Benzyl-5-pentyl-2H-pyrazolo[4,3-c]quinolin-3(5H)-one], the Ki (hCB2 [1]) is reported as greater than 3000 nM and the Ki (hCB1) is reported as greater than 3000 nM.
With CCCCCn1cc2c(=O)n(CC34CC5CC(CC(C5)C3)C4)nc-2c2ccccc21 [Compound 26, 2-(1-Adamantylmethyl)-5-pentyl-2H-pyrazolo[4,3-c]quinolin-3(5H)-one] the Ki (hCB2 [1]; [3]) was 0.39 ± 0.03 nM, the EC50 (hCB2 [2]) was 64 ± 10 nM and the Emax (hCB2 [2]) was 163 ± 4%. For the same molecule, the “Overall efficacy against colitis” value (colitis caused by TNBS; oral administration) was “effective in mice against colitis in a dose-dependent manner”, the “Loss of body weight” value (colitis caused by TNBS; oral daily treatment 0.1, 1 and 10 mg/kg, five days after TNBS) was “attenuates in a dose-dependent manner the loss of weight” and the Macroscopic score (colitis caused by TNBS; oral, 10 mg/kg, scale 0 to 10, printed as 1.7 versus 1.9) was 1.7. For the same molecule, the “Mortality / survival rate” value (colitis caused by TNBS; oral, 0.1, 1 and 10 mg/kg daily, versus untreated mice (FIG. 1A)) was “reduction in mortality”, the “Macroscopic score” value (colitis caused by TNBS; oral, 0.1, 1 and 10 mg/kg, colon after euthanasia (FIG. 2A)) was “reduces the macroscopic scores (FIG. 2A) in a dose-dependent manner” and the “Attenuation of histological scores” value (colitis caused by TNBS; oral, histological score scale 0 to 6 (FIG. 2B)) was 65%.
CCCCCn1cc2c(=O)[nH]nc-2c2ccccc21 [Compound 8, 5-Pentyl-2H-pyrazolo[4,3-c]quinolin-3(5H)-one] gave a Ki (hCB2 [1]; [3]) greater than 3000 nM and a Ki (hCB1; [4]) greater than 3000 nM.
For O=c1c2cn(CCCC(F)(F)F)c3ccccc3c-2nn1CC1CCCCC1 [Compound 43, 2-(Cyclohexylmethyl)-5-(4,4,4-trifluorobutyl)-2H-pyrazolo[4,3-c]quinolin-3(5H)-one], the Ki (hCB2 [1]) was 6.17 nM, the Ki (hCB1; [5]) was 1680 nM and the melting point was 224 °C.
CCCCn1cc2c(=O)n(CC3CCCCC3)nc-2c2ccccc21 [Compound 40, 2-(Cyclohexylmethyl)-5-butyl-2H-pyrazolo[4,3-c]quinolin-3(5H)-one] gave a Ki (hCB2 [1]) of 14.8 nM, a Ki (hCB1; [5]) greater than 10000 nM and a melting point of 216 °C.
For CCCCCCn1nc2c3ccccc3n(CCCCC)cc-2c1=O [Compound 22, 2-Hexyl-5-pentyl-2H-pyrazolo[4,3-c]quinolin-3(5H)-one], the Ki (hCB2 [1]; [3]) was 7.7 ± 0.3 nM and the Ki (hCB1) was greater than 3000 nM.
Work on O=c1c2cn(CC3CCOCC3)c3ccccc3c-2nn1CC1CCCCC1 [Compound 42, 2-(Cyclohexylmethyl)-5-(tetrahydro-2H-4-pyranylmethyl)-pyrazolo[4,3-c]quinolin-3(5H)-one] yielded a Ki (hCB2 [1]) of 5.32 nM, a Ki (hCB1) of 520 nM and a melting point greater than 250 °C.
With CCCCCCn1cc2c(=O)n(CC3CCCCC3)nc-2c2ccccc21 [Compound 41, 2-(Cyclohexylmethyl)-5-hexyl-2H-pyrazolo[4,3-c]quinolin-3(5H)-one] the Ki (hCB2 [1]) was 31.1 nM, the Ki (hCB1; [5]) was greater than 10000 nM and the melting point was 193 °C.
In the case of CCCCCn1nc2c3ccccc3n(CCCCC)cc-2c1=O [Compound 21, 2,5-Dipentyl-2H-pyrazolo[4,3-c]quinolin-3(5H)-one], the Ki (hCB2 [1]; [3]) is reported as 4.3 ± 0.3 nM and the Ki (hCB1) is reported as greater than 3000 nM.
